Assay results published in patent EP0252983B1, “SALTS OF N-(VINYLOXIETHYL)DITHIOCARBAMIC ACID, METHOD OF OBTAINING THEREOF AND […] ON THEM” (priority 1985, dated 1987).

Tests used:
[1] = system: Acremonium charticola; assay: Mycelial growth inhibition on agar (contact activity); format: cell-based; details: Würzeagar
Description: (§1) Die Prüfungen werden nach dem Verfahren zur Ermittlung der Kontaktaktivität durchgeführt. Man verwendet das in Wasser gelöste Kalium-N-(vinyloxyäthyl)dithiocarbamat, führt es in ein Nährmedium ein und vergießt auf Petri-Schalen. Nach 24 Stunden wird mit Pilzmyzelium nach einem Stichverfahren geimpft. Dann temperiert man die Schalen innerhalb von 5 Tagen bei einer zwischen 24 und 26 °C liegenden Temperatur und mißt den Durchmesser von Pilzkolonien, ermittelt den Prozentsatz der Hemmung des Myzelwachstums (S) ausgehend von Angaben am 5. Tag nach der Abbott-Formel [drawing 13] worin dc für den Durchmesser der Pilzkolonien, de für den Durchmesser von Pilzkolonien in der Schale stehen, wo ein die zu prüfenden Stoffe enthaltendes Medium vorhanden ist. Dieses Verfahren zur Ermittlung der mikrobiologischen Aktivität ist in anderen Beispielen verwendet.
(§2) Die Pilzkulturen werden auf Würzeagar gezüchtet. Ergebnisse, erhalten bei der Prüfung der fungiziden Aktivität gegen reine Kulturen von Mikroorganismen, welche Bioschädigungen hervorrufen, sind in der Tabelle 1 dargestellt.

[2] = system: Acremonium cowum; assay: as above; format: cell-based; details: Würzeagar
Description: as §1, §2

[3] = system: Cladosporium cladosporioides; assay: as above; format: cell-based; details: Würzeagar
Description: as §1, §2

[4] = system: Cladosporium resinae; assay: as above; format: cell-based; details: Würzeagar
Description: as §1, §2

[5] = system: Geotrichum candidum Link; assay: as above; format: cell-based; details: Würzeagar
Description: as §1, §2

[6] = system: Oidium Sp.; assay: as above; format: cell-based; details: Würzeagar
Description: as §1, §2

[7] = system: Penicillium charlesii; assay: as above; format: cell-based; details: Würzeagar
Description: as §1, §2

[8] = system: Penicillium chrysogenum; assay: as above; format: cell-based; details: Würzeagar
Description: as §1, §2

[9] = system: Walrotiela subiculesa; assay: as above; format: cell-based; details: Würzeagar
Description: as §1, §2

[10] = system: Fusarium moniliforme; assay: as above; format: cell-based; details: concentration not given
Description: as §1
(§3) Tabelle 2 zeigt die Angaben für die fungizide Aktivität von Kalium-N-(vinyloxyäthyl)dithiocarbamat und bekannten wirksamen Fungiziden Poly arbazin und TMTD. Der zu prüfende Stoff wurde im Laufe der Versuche in Wasser aufgelöst, und die Kulturen wurden auf einem Kartoffel-Glukose-Nährmedium gezüchtet.

[11] = system: Fusarium sambucinum; assay: as above; format: cell-based; details: concentration not given
Description: as §1, §3

[12] = system: Aspergillus niger; assay: as above; format: cell-based; details: concentration not given
[13] = system: Rhizoctonia solani; assay: as above; format: cell-based; details: concentration not given
Description: as §1
Die fungizide Aktivität von Zink-bis-(N-vinyloxyäthyldithiocarbamat) gegen reine Kulturen von Pilzen Fusarium moniliforme, Fusarium sambucinum, Aspergillus niger, Rhizoctonia solani, Cladosporium resinae, Cladosporium cladosporioides, Acremonium cowum, Acremonium charticola, Penicillium chrysogenum, Penicillium charlesii Smith, Penicillium funiculosum, Geotrichum candidum Link, Walrotiela subiculesa, Oidium sp., Paecilomyces varioti, Stereum hirsutum wird gemäß Beispiel 8 untersucht.
(§4) Als Nährmedium dient Würzeagar.

[14] = system: Sphaeropsis malorum; assay: as above; format: cell-based; details: concentration not given
Description: as §1, §4

[15] = system: Xantomonas malvacearum; assay: Bacterial growth inhibition; format: cell-based; details: concentration not given
[16] = system: Psoroptes cuniculi; assay: Acaricidal activity on isolated mites; format: in vivo
Description: Die akarizide Aktivität der Stoffe wird an isolierten Milben Psoroptes cuniculi als Erreger der Psoroptesräude bei Kaninchen geprüft. Von frischen Verkrustungen von Kaninchen mit Psoroptesräude, werden zu diesem Zweck 50 Milbenexemplare (Larven, Nymphen, Imago) gewählt und in Petri-Schalen auf ein Filterpapierblatt übertragen. Dann bringt man auf Milben und die ganze Blattoberfläche 1,5 ml zu prüfende wäßrige Stofflösung in destilliertem Wasser auf. Die Schale wird mit Deckel verschlossen und in einen Thermostat bei 30 °C und Feuchtegehalt von 90 % angeordnet. Der Wirkstoff wird als wäßrige Lösung mit einer zwischen 0,0039 und 4 % liegenden Konzentration genommen. Als Vergleichsmuster dient gleichzeitig eine wäßrige Lösung von Chlorophos. Milben werden im Kontrollversuch (Kontrolle auf Lebensfähigkeit)mit 1,5 ml physiologischer Lösung behandelt und in einen anderen Thermostat unter gleichen Temperatur- und Feuchtigkeitsbedingungen aufgestellt.
Nach 1, 2, 4, 6 Stunden und alle 24 Stunden betrachtet man die Milben im Mikroskop und zählt die toten Milben. Aufgrund der Milbenvernichtung durch einen 24-stündigen Kontakt mit dem Wirkstoff ermittelt man die LK-50 Werte. Die Versuche werden 5mal wiederholt. Arithmetische Mittelwerte gibt Tabelle 14 an.

[17] = Acute toxicity (LD50) in mice; format: in vivo, weißen Mäusen; details: mouse, in vivo, ip; intraabdominale Applikation an weißen Mäusen; read-out: LD50
[18] = Solubility in water (descriptive); format: physicochemical
[19] = Storage stability (descriptive); format: physicochemical

C=COCCNC(=S)S [Natrium-N-(vinyloxyäthyl)dithiocarbamat]
Myzelhemmung in % ([1]; Präparatkonzentration 0,0015 %): 100%
Myzelhemmung in % ([1]; Präparatkonzentration 0,003 %): 100%
Myzelhemmung in % ([1]; Präparatkonzentration 0,006 %): 100%
Myzelhemmung in % ([1]; Präparatkonzentration 0,012 %): 100%
Myzelhemmung in % ([2]; Präparatkonzentration 0,0015 %): 100%
Myzelhemmung in % ([2]; Präparatkonzentration 0,003 %): 100%
Myzelhemmung in % ([2]; Präparatkonzentration 0,006 %): 100%
Myzelhemmung in % ([2]; Präparatkonzentration 0,012 %): 100%
Myzelhemmung in % ([3]; Präparatkonzentration 0,0015 %): 100%
Myzelhemmung in % ([3]; Präparatkonzentration 0,003 %): 100%
Myzelhemmung in % ([3]; Präparatkonzentration 0,006 %): 100%
Myzelhemmung in % ([3]; Präparatkonzentration 0,012 %): 100%
Myzelhemmung in % ([4]; Präparatkonzentration 0,0015 %): 90%
Myzelhemmung in % ([4]; Präparatkonzentration 0,003 %): 100%
Myzelhemmung in % ([4]; Präparatkonzentration 0,006 %): 100%
Myzelhemmung in % ([4]; Präparatkonzentration 0,012 %): 100%
Myzelhemmung in % ([5]; Präparatkonzentration 0,0015 %): 5%
Myzelhemmung in % ([5]; Präparatkonzentration 0,003 %): 40%
Myzelhemmung in % ([5]; Präparatkonzentration 0,006 %): 75%
Myzelhemmung in % ([5]; Präparatkonzentration 0,012 %): 100%
Myzelhemmung in % ([6]; Präparatkonzentration 0,0015 %): 60%
Myzelhemmung in % ([6]; Präparatkonzentration 0,003 %): 100%
Myzelhemmung in % ([6]; Präparatkonzentration 0,006 %): 100%
Myzelhemmung in % ([6]; Präparatkonzentration 0,012 %): 100%
Myzelhemmung in % ([7]; Präparatkonzentration 0,0015 %): 25%
Myzelhemmung in % ([7]; Präparatkonzentration 0,003 %): 40%
Myzelhemmung in % ([7]; Präparatkonzentration 0,006 %): 90%
Myzelhemmung in % ([7]; Präparatkonzentration 0,012 %): 100%
Myzelhemmung in % ([8]; Präparatkonzentration 0,0015 %): 5%
Myzelhemmung in % ([8]; Präparatkonzentration 0,003 %): 20%
Myzelhemmung in % ([8]; Präparatkonzentration 0,006 %): 80%
Myzelhemmung in % ([8]; Präparatkonzentration 0,012 %): 100%
Myzelhemmung in % ([9]; Präparatkonzentration 0,0015 %): 100%
Myzelhemmung in % ([9]; Präparatkonzentration 0,003 %): 100%
Myzelhemmung in % ([9]; Präparatkonzentration 0,006 %): 100%
Myzelhemmung in % ([9]; Präparatkonzentration 0,012 %): 100%
unterdrückt das Wachstum des Myzeliums der Pilze [10]: 100%
unterdrückt das Wachstum des Myzeliums der Pilze [11]: 100%
unterdrückt das Wachstum des Myzeliums der Pilze [12]: 100%
unterdrückt das Wachstum des Myzeliums der Pilze [13]: 100%
unterdrückt das Wachstum des Myzeliums der Pilze [14]: 100%
unterdrückt das Wachstum von Bakterien [15]: 33%
LK-50 % ([16]; 24-stündiger Kontakt mit dem Wirkstoff): 0,0022%
Vernichtung von 100 % der Milben nach Stunden ([16]; Konzentration 0,0039 %): 48 Stunden
Vernichtung von 100 % der Milben nach Stunden ([16]; Konzentration 0,0078 %): 24 Stunden
Vernichtung von 100 % der Milben nach Stunden ([16]; Konzentration 0,0625 bis 0,125 %): 6 Stunden
Vernichtung von 100 % der Milben nach Stunden ([16]; Konzentration 0,125 bis 0,5 %): 4 Stunden
selektive Toxizität gegen Räudemilben, dem Chlorophos überlegen ([16]; gegenüber Chlorophos): ~400 mal
LD50 [17]: 260 mg/kg
Löslichkeit in Wasser [18]: gut
Lagerbeständigkeit [19]: lagerbeständig
